Measured values taken from publication PMC4798002 (Bioorganic & medicinal chemistry letters, 2014).
≈ marks a conversion by molar mass, not a printed value. Read-outs that look alike come from different tables or passages of the source.

What was measured:
ANT(2″)-Ia [1] = target: T1, ANT(2″)-Ia (Klebsiella pneumoniae, UniProt P0AE05); assay: ANT; assay type: biochemical; conditions: for fold less potent than β-thujaplicinol: relative to β-thujaplicinol; for fold increase in activity over the other synthetic α-hydroxytropolones: relative to other synthetic α-hydroxytropolones
T1 sequence (P0AE05 whole entry): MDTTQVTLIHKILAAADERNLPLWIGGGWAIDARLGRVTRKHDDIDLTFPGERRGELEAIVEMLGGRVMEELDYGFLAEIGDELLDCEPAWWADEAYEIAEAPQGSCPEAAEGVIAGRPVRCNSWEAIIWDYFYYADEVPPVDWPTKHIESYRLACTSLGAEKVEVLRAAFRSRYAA

[2] = test system: hyper-permeable, ANT(2″)-Ia-expressing strain of E. coli BW25113; assay: Checkerboard analysis with gentamicin against ANT; assay type: cell-based; conditions: for synergy with gentamicin (in words): ANT(2″)-Ia-expressing E. coli
[3] = test system: E. coli BW25113 wild type; assay: Gentamicin MIC against wild type E. coli; assay type: cell-based; conditions: Escherichia coli, BW25113, read-out: gentamicin MIC
ANT(2″)-Ia [4] = target: T1, ANT(2″)-Ia; conditions: cited from earlier work
[5] = test system: isogenic E. coli mutant with the gene encoding aminoglycoside phosphotransferase (APH[2″]-Id); assay: Checkerboard analysis with gentamicin against APH; assay type: cell-based; conditions: ANT(2″)-Ia-negative, APH(2″)-Id-positive bacteria
[6] = purified enzyme, 96 well format

Cc1cc(O)c(=O)c(O)cc1-c1cccc2ccccc12 [3j]
ANT(2″)-Ia inhibitory activity (in words) (ANT(2″)-Ia [1]; [6]): no activity at all

CC(=O)c1cc(O)c(=O)c(O)cc1C [3e]
gentamicin concentration at which no growth is seen ([2]; 50 μM of compound, lowest concentration of gentamicin tested): ≤ 2 µg/mL | synergy with gentamicin (in words) [2]: Synergy | ANT(2″)-Ia inhibitory activity (in words) (ANT(2″)-Ia [1]; [6]): significant inhibitory potency | fold less potent than β-thujaplicinol (ANT(2″)-Ia [1]): 5–10 fold

Cc1cc(O)c(=O)c(O)cc1-c1ccc2ccccc2c1 [3k]
ANT(2″)-Ia inhibitory activity (in words) (ANT(2″)-Ia [1]; [6]): no activity at all

Cc1cc(O)c(=O)c(O)cc1-c1ccc(C(F)(F)F)cc1 [3n]
synergy with gentamicin (in words) [2]: Synergy | ANT(2″)-Ia inhibitory activity (in words) (ANT(2″)-Ia [1]; [6]): no activity at all

Cc1cc(O)c(=O)c(O)cc1-c1ccc(Br)cc1 [3l]
synergy with gentamicin (in words) [2]: no synergistic activity | fold increase in activity over the other synthetic α-hydroxytropolones (ANT(2″)-Ia [1]): ~4 fold

Cc1cc(O)c(=O)c(O)cc1-c1ccccc1 [3i]
ANT(2″)-Ia inhibitory activity (in words) (ANT(2″)-Ia [1]; [6]): comparable potency to nitroaryl-containing 3g

CNC(C)C1CCC(N)C(OC2C(N)CC(N)C(OC3OCC(C)(O)C(NC)C3O)C2O)O1 (centres unmarked) [gentamicin, reference compound]
MIC ([2]; Escherichia coli, BW25113, read-out: gentamicin MIC): 64 µg/mL | MIC [3]: 0.25 µg/mL (≈ 0.523 µM)

Cc1cc(O)c(=O)c(O)cc1-c1ccc(Cl)cc1 [3m]
synergy with gentamicin (in words) [2]: no synergistic activity | fold increase in activity over the other synthetic α-hydroxytropolones (ANT(2″)-Ia [1]): ~4 fold

O=c1c(O)ccccc1O [α-hydroxytropolone]
ANT(2″)-Ia inhibition (in words) (ANT(2″)-Ia [4]): capable of inhibiting

COc1cc(C)c(C(C)=O)cc(O)c1=O [4e]
ANT(2″)-Ia inhibitory activity (in words) (ANT(2″)-Ia [1]): inactive

O=c1cccccc1O [Tropolone]
ANT(2″)-Ia inhibition (in words) (ANT(2″)-Ia [4]): no activity

Cc1cc(O)c(=O)c(O)cc1C(=O)C(C)C [3o]
ANT(2″)-Ia inhibitory activity (in words) (ANT(2″)-Ia [1]; [6]): appreciable inhibitory activity, which was comparable to 3e

CC(C)c1ccc(O)c(=O)c(O)c1 [β-thujaplicinol]
antibacterial effect of compound (in words) ([2]; 50 μM of compound): all of the bacterial cells have died | synergy with gentamicin (in words) [5]: no synergy | ANT(2″)-Ia inhibition (in words) (ANT(2″)-Ia [4]): capable of inhibiting

Cc1cc(O)c(=O)c(O)cc1C(=O)C1CCCCC1 [3p]
ANT(2″)-Ia inhibitory activity (in words) (ANT(2″)-Ia [1]; [6]): inactivity

Cc1cc(O)c(=O)c(O)cc1-c1ccc(-c2ccccc2)cc1 [3h]
synergy with gentamicin (in words) [2]: no synergistic activity

Cc1cc(O)c(=O)c(O)cc1-c1ccc([N+](=O)[O-])cc1 [3g]
synergy with gentamicin (in words) [2]: no synergistic activity | ANT(2″)-Ia inhibitory activity (in words) (ANT(2″)-Ia [1]; [6]): significant inhibitory potency | fold less potent than β-thujaplicinol (ANT(2″)-Ia [1]): 5–10 fold

COc1cc(C)c(-c2ccc([N+](=O)[O-])cc2)cc(O)c1=O [4g]
ANT(2″)-Ia inhibitory activity (in words) (ANT(2″)-Ia [1]): inactive

Cc1cc(O)c(=O)c(O)cc1C(=O)CC1CCCCC1 [3q]
ANT(2″)-Ia inhibitory activity (in words) (ANT(2″)-Ia [1]; [6]): inactivity
